From patent US20230286958A1, “PLASMA KALLIKREIN INHIBITORS” (Merck Sharp & Dohme LLC, priority 2020, published 2023) come the findings set out here.

The structures appear in SMILES notation. Where only a bound is given, the exact number is not on record here.

One assay deals with Human plasma kallikrein (Homo sapiens (Human), UniProt P03952). The assay can be described thus: Kallikrein Assay (fluorogenic substrate Acetyl-K-P-R-AFC). Conditions: Plasma Kallikrein (PKal). In kind it is biochemical. The essentials:
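Ki is derived from IC50 with the Cheng-Prusoff equation, and IC50 from the inflection point of a four-parameter logistic curve. The rate of AFC release is read with 0.5 nM purified enzyme and […] substrate at room temperature or 37 °C.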

Another assay deals with human Factor XIa (Homo sapiens (Human), UniProt P03951). The assay can be described thus: Factor XIa Assay (fluorogenic substrate GPR-AFC). Conditions: Factor XIa (FXIa). Type of assay: biochemical.
human Factor XIa, sequence (P03951 388-625 limits assumed): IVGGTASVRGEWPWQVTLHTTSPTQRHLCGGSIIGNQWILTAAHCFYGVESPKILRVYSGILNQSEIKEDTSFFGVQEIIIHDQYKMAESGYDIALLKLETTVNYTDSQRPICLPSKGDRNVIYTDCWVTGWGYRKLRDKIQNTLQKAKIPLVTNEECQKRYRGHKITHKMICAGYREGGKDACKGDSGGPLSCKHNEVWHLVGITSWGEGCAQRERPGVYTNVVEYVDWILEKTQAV
human Factor XIa, sequence (P03951 19-387 partner limits assumed): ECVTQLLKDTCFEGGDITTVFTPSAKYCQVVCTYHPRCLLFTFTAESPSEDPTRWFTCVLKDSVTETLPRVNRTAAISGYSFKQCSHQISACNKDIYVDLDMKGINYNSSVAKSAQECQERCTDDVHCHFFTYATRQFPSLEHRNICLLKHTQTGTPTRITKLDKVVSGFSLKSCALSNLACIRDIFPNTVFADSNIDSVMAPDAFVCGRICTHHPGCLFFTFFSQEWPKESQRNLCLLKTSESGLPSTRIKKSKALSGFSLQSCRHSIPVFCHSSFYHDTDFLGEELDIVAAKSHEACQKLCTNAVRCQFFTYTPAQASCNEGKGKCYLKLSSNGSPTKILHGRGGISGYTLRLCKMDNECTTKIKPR

Human plasma kallikrein, sequence (P03952 391-638): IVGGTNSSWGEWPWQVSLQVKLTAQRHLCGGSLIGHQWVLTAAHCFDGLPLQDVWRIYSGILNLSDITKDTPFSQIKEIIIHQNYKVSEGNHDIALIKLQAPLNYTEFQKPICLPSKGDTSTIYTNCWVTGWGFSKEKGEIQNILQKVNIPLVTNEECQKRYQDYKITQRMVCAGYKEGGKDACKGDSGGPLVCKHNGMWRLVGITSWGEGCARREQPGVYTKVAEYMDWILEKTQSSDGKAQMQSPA
Human plasma kallikrein, sequence (P03952 20-390 partner): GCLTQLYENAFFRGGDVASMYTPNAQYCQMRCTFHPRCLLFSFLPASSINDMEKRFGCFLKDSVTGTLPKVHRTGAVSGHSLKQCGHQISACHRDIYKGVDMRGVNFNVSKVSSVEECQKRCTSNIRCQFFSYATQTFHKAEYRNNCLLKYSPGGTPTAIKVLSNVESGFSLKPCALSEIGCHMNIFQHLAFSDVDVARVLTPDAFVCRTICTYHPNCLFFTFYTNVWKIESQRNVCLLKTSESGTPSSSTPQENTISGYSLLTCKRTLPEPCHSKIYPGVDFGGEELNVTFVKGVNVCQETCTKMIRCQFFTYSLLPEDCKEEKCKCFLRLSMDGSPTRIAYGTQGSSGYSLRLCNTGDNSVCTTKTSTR

For the compound `Cc1ncc(-c2c(C(F)F)ccc(Cl)c2F)nc1C(=O)Nc1cnn(Cc2cnc(N3C[C@H]4C[C@H]4C3=O)c(C)n2)c1` [Example 46, 6-(3-Chloro-6-(difluoromethyl)-2-fluorophenyl)-3-methyl-N-(1-((6-methyl-5-((1R,5S)-2-oxo-3-azabicyclo[3.1.0]hexan-3-yl)pyrazin-2-yl)methyl)-1H-pyrazol-4-yl)pyrazine-2-carboxamide], the 50% inhibitory concentration (IC50) at Human plasma kallikrein stood at 0.0009 µM; at human Factor XIa it was 0.755 µM.

Consider `Cc1nc(N2C[C@H]3C[C@H]3C2=O)ncc1Cn1cc(NC(=O)c2nc(-c3c(S(C)(=O)=O)ccc(Cl)c3F)cnc2C)cn1` [Example 85, 6-(3 -Chloro-2-fluoro-6-(methylsulfonyl)phenyl)-3-methyl-N-(1-((4-methyl-2-((1R,5S)-2-oxo-3-azabicyclo[3.1.0]hexan-3-yl)pyrimidin-5-yl)methyl)-1H-pyrazol-4-yl)pyrazine-2-carboxamide], for which the IC50 on Human plasma kallikrein is 0.0101 µM; at human Factor XIa, 2.07 µM.

On to `C[C@@H](c1cnc(N2C[C@H]3C[C@H]3C2=O)nc1)n1cc(NC(=O)c2nc(-c3c(C(F)F)ccc(Cl)c3F)cnc2COC(C)(C)C)cn1` [Example 192, 3-(tert-Butoxymethyl)-6-(3-chloro-6-(difluoromethyl)-2-fluorophenyl)-N-(1-((S)-1-(2-((1R,5S)-2-oxo-3-azabicyclo[3.1.0]hexan-3-yl)pyrimidin-5-yl)ethyl)-1H-pyrazol-4-yl)pyrazine-2-carboxamide], for which the figures for the IC50 against Human plasma kallikrein and on human Factor XIa were 0.0044 µM and 6.83 µM, respectively.

As for `Cc1ncc(-c2c(OC(F)F)ccc(Cl)c2F)nc1C(=O)Nc1cnn(C(C)c2cnc(N3C[C@H]4C[C@H]4C3=O)c(F)c2C)c1` (single isomer, unassigned) [Example 130, 6-(3-Chloro-6-(difluoromethoxy)-2-fluorophenyl)-N-(1-((R or S)-1-(5-fluoro-4-methyl-6-((1R,5S)-2-oxo-3-azabicyclo[3.1.0]hexan-3-yl)pyridin-3-yl)ethyl)-1H-pyrazol-4-yl)-3-methylpyrazine-2-carboxamide], the half-maximal inhibitory concentration (IC50) on Human plasma kallikrein was 0.0008 µM; against human Factor XIa, 0.549 µM.

In the case of `Cc1c(N2C[C@H]3C[C@H]3C2=O)cnc(C(C)n2cc(NC(=O)c3cncc(-c4c(C(F)F)ccc(Cl)c4F)n3)cn2)c1N` (single isomer, unassigned) [Example 117, N-(1-((S or R)-1-(3-Amino-4-methyl-5-((1R,SS)-2-oxo-3-azabicyclo[3.1.0]hexan-3-yl)pyridin-2-yl)ethyl)-1H-pyrazol-4-yl)-6-(3-chloro-6-(difluoromethyl)-2-fluorophenyl)pyrazine-2-carboxamide], the figures for the IC50 against Human plasma kallikrein and against human Factor XIa were 0.0019 µM and over 10 µM, respectively.

On to `Cc1cc([C@@H](C)n2cc(NC(=O)c3nc(-c4c(OC(F)F)ccc(Cl)c4F)cnc3C)cn2)nnc1N1C[C@H]2C[C@H]2C1=O` [Example 40, 6-(3-Chloro-6-(difluoromethoxy)-2-fluorophenyl)-3-methyl-N-(1-((R)-1-(5-methyl-6-((1R,5S)-2-oxo-3-azabicyclo[3.1.0]hexan-3-yl)pyridazin-3-yl)ethyl)-1H-pyrazol-4-yl)pyrazine-2-carboxamide], for which the IC50 against Human plasma kallikrein amounted to 0.0018 µM; against human Factor XIa, 0.255 µM.

In the case of `Cc1ncc(-c2c(C(F)F)ccc(Cl)c2F)nc1C(=O)Nc1cnn(Cc2cnc(N3C[C@H]4C[C@H]4C3=O)c(N)c2)c1` [Example 191, N-(1-((5-Amino-6-((1R,5S)-2-oxo-3-azabicyclo[3.1.0]hexan-3-yl)pyridin-3-yl)methyl)-1H-pyrazol-4-yl)-6-(3-chloro-6-(difluoromethyl)-2-fluorophenyl)-3-methylpyrazine-2-carboxamide], the results for the half-inhibitory concentration (IC50) against Human plasma kallikrein and at human Factor XIa were 0.0011 µM and 0.111 µM, respectively.

Consider `Cc1ncc(-c2c(C#N)ccc(Cl)c2F)nc1C(=O)Nc1cnn(C(C)c2cnc(N3C[C@H]4C[C@H]4C3=O)c(C)n2)c1` (single isomer, unassigned) [Example 235, 6-(3-Chloro-6-cyano-2-fluorophenyl)-3-methyl-N-(1-((S or R)-1-(6-methyl-5-((1R,5S)-2-oxo-3-azabicyclo[3.1.0]hexan-3-yl)pyrazin-2-yl)ethyl)-1H-pyrazol-4-yl)pyrazine-2-carboxamide], for which the half-inhibitory concentration (IC50) on Human plasma kallikrein is 0.0004 µM; against human Factor XIa, 2.06 µM.

Turning to `CCc1ncc(-c2c(C(F)F)ccc(Cl)c2F)nc1C(=O)Nc1cnn(Cc2cc(C)c(N3C[C@H]4C[C@H]4C3=O)nn2)c1` [Example 233, 6-(3-Chloro-6-(difluoromethyl)-2-fluorophenyl)-3-ethyl-N-(1-((5-methyl-6-((1R,5S)-2-oxo-3-azabicyclo[3.1.0]hexan-3-yl)pyridazin-3-yl)methyl)-1H-pyrazol-4-yl)pyrazine-2-carboxamide], the values for the 50% inhibitory concentration (IC50) at Human plasma kallikrein and against human Factor XIa were 0.0197 µM and 1.2 µM, respectively.

Take `Cc1ncc(-c2c(C(F)F)ccc(Cl)c2F)nc1C(=O)Nc1cnn([C@@H](C)c2cnc(N3C[C@H]4C[C@H]4C3=O)c(N)c2)c1` [Example 189]: the figures for the IC50 against Human plasma kallikrein and against human Factor XIa were 0.0013 µM and 0.667 µM, respectively.

Take `O=C(Nc1cnn(Cc2cnc(N3C[C@H]4C[C@H]4C3=O)c(Cl)c2)c1)c1cncc(-c2c(C(F)F)ccc(Cl)c2F)n1` [Example 8, N-(1-((5-Chloro-6-((1R,5S)-2-oxo-3-azabicyclo[3.1.0]hexan-3-yl)pyridin-3-yl)methyl)-1H-pyrazol-4-yl)-6-(3-chloro-6-(difluoromethyl)-2-fluorophenyl)pyrazine-2-carboxamide]: the IC50 at Human plasma kallikrein is 0.0119 µM; at human Factor XIa, over 10 µM.

`Cc1nc(C(C)n2cc(NC(=O)c3cncc(-c4c(C(F)F)ccc(Cl)c4F)n3)cn2)ncc1N1C[C@H]2C[C@H]2C1=O` (single isomer, unassigned) [Example 4, 6-(3-Chloro-6-(difluoromethyl)-2-fluorophenyl)-N-(1-((R or S)-1-(4-methyl-5-((1R,5S)-2-oxo-3-azabicyclo[3.1.0]hexan-3-yl)pyrimidin-2-yl)ethyl)-1H-pyrazol-4-yl)pyrazine-2-carboxamide]: the half-inhibitory concentration (IC50) at Human plasma kallikrein was 0.0168 µM; at human Factor XIa it was over 10 µM.

For the compound `Cc1ncc(-c2c(C#N)ccc(Cl)c2F)nc1C(=O)Nc1cnn(C(CO)c2cnc(N3C[C@H]4C[C@H]4C3=O)nc2)c1` (single isomer, unassigned) [Example 166, 6-(3-Chloro-6-cyano-2-fluorophenyl)-N-(1-((R or S)-2-hydroxy-1-(2-((1R,5S)-2-oxo-3-azabicyclo[3.1.0]hexan-3-yl)pyrimidin-5-yl)ethyl)-1H-pyrazol-4-yl)-3-methylpyrazine-2-carboxamide], the 50% inhibitory concentration (IC50) against Human plasma kallikrein was 0.0197 µM; against human Factor XIa, over 10 µM.

For `Cc1nc(N2C[C@H]3C[C@H]3C2=O)c(F)cc1C(C)n1cc(NC(=O)c2cncc(-c3c(C(F)F)ccc(Cl)c3F)n2)cn1` (stereo partly shown) [Example 151, 6-(3-Chloro-6-(difluoromethyl)-2-fluorophenyl)-N-(1-(1-(5-fluoro-2-methyl-6-((1R.5S)-2-oxo-3-azabicyclo[3.1.0]hexan-3-yl)pyridin-3-yl)ethyl)-1H-pyrazol-4-yl)pyrazine-2-carboxamide], the IC50 is 0.0058 µM on Human plasma kallikrein and over 10 µM against human Factor XIa.

As to `COc1cc(Cn2cc(NC(=O)c3cncc(-c4c(C(F)F)ccc(Cl)c4F)n3)cn2)cnc1N1C[C@H]2C[C@H]2C1=O` [Example 49, 6-(3-Chloro-6-(difluoromethyl)-2-fluorophenyl)-N-(1-((5-methoxy-6-((1R,5S)-2-oxo-3-azabicyclo[3.1.0]hexan-3-yl)pyridin-3-yl)methyl)-1H-pyrazol-4-yl)pyrazine-2-carboxamide], the values for the half-maximal inhibitory concentration (IC50) at Human plasma kallikrein and against human Factor XIa were 0.0035 µM and 0.423 µM, respectively.

With `CC(c1cnc(N2CCN(C)C2=O)nc1)n1cc(NC(=O)c2cncc(-c3c(C(F)F)ccc(Cl)c3F)n2)cn1` (racemic) [Example 28, (S and R)-6-(3-Chloro-6-(difluoromethyl)-2-fluorophenyl)-N-(1-(1-(2-(3-methyl-2-oxoimidazolidin-1-yl)pyrimidin-5-yl)ethyl)-1H-pyrazol-4-yl)pyrazine-2-carboxamide], the values for the 50% inhibitory concentration (IC50) against Human plasma kallikrein and on human Factor XIa were 0.0474 µM and over 10 µM, respectively.

With `Cc1nc(C(C)n2cc(NC(=O)c3cncc(-c4c(C(F)F)ccc(Cl)c4F)n3)cn2)cnc1N1C[C@H]2C[C@H]2C1=O` (single isomer, unassigned) [Example 13, 6-(3-Chloro-6-(difluoromethyl)-2-fluorophenyl)-N-(1-((R or S)-1-(6-methyl-5-((1R,5S)-2-oxo-3-azabicyclo[3.1.0]hexan-3-yl)pyrazin-2-yl)ethyl)-1H-pyrazol-4-yl)pyrazine-2-carboxamide], the IC50 was 0.0005 µM against Human plasma kallikrein and 2.82 µM against human Factor XIa.

For `C[C@@H](c1cnc(N2C[C@H]3C[C@H]3C2=O)nc1)n1cc(NC(=O)c2nc(-c3c(C(F)F)ccc(Cl)c3F)cnc2C(F)F)cn1` [Example 174, 6-(3-Chloro-6-(difluoromethyl)-2-fluorophenyl)-3-(difluoromethyl)-N-(1-((S)-1-(2-((1R,5S)-2-oxo-3-azabicyclo[3.1.0]hexan-3-yl)pyrimidin-5-yl)ethyl)-1H-pyrazol-4-yl)pyrazine-2-carboxamide], the IC50 was 0.0065 µM on Human plasma kallikrein and 9.35 µM against human Factor XIa.

Regarding `Cc1cc(C(C)n2cc(NC(=O)c3nc(-c4c(C(F)F)ccc(Cl)c4F)cnc3C)cn2)nnc1N1C[C@H]2C[C@H]2C1=O` (single isomer, unassigned) [Example 102, 6-(3-Chloro-6-(difluoromethyl)-2-fluorophenyl)-3-methyl-N-(1-((S or R)-1-(5-methyl-6-((1R,5S)-2-oxo-3-azabicyclo[3.1.0]hexan-3-yl)pyridazin-3-yl)ethyl)-1H-pyrazol-4-yl)pyrazine-2-carboxamide], the half-inhibitory concentration (IC50) against Human plasma kallikrein came to 0.0007 µM; against human Factor XIa it was 0.739 µM.

For `COc1cc(C(C)n2cc(NC(=O)c3nc(-c4c(C(F)F)ccc(Cl)c4F)cnc3C)cn2)cnc1N1C[C@H]2C[C@H]2C1=O` (single isomer, unassigned) [Example 218, 6-(3-Chloro-6-(difluoromethyl)-2-fluorophenyl)-N(1-((S or R)-1-(5-methoxy-6-((1R,5S)-2-oxo-3-azabicyclo[3.1.0]hexan-3-yl)pyridin-3-yl)ethyl)-1H-pyrazol-4-yl)-3-methylpyrazine-2-carboxamide], the results for the IC50 on Human plasma kallikrein and at human Factor XIa were 0.0018 µM and 0.414 µM, respectively.
